pIC50: −log10 of the molar value.
Key:
[1] = biological target: T1, recombinant human Cox-1 (r-hu Cox1) (Homo sapiens, UniProt P23219); assay: Recombinant human PGHS-1 enzyme assay (RHUCX1); type: biochemical; settings: for inhibition at 1 µM / inhibition at 10 µM / inhibition at 100 µM: read-out: RHUCX1 % Inh. at Dose; for pIC50: read-out: RHUCX1 IC50 (parenthetical value)
T1 construct: made in house; host or cells: baculovirus/Sf9 insect cells (microsomes)
Outline: (§1)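 PGE2 by EIA (optical density) → % inhibition vs control-group mean → IC50 from linear regression.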

[2] = biological target: T2, recombinant human Cox-2 (r-hu Cox-2) (Homo sapiens, UniProt P35354); assay: Recombinant human PGHS-2 enzyme assay (RHUCX2); type: biochemical; settings: for pIC50: read-out: RHUCX2 IC50 (parenthetical value)
T2 construct: made in house; host or cells: baculovirus/Sf9 insect cells (microsomes)
T2 sequence (P35354 18-604): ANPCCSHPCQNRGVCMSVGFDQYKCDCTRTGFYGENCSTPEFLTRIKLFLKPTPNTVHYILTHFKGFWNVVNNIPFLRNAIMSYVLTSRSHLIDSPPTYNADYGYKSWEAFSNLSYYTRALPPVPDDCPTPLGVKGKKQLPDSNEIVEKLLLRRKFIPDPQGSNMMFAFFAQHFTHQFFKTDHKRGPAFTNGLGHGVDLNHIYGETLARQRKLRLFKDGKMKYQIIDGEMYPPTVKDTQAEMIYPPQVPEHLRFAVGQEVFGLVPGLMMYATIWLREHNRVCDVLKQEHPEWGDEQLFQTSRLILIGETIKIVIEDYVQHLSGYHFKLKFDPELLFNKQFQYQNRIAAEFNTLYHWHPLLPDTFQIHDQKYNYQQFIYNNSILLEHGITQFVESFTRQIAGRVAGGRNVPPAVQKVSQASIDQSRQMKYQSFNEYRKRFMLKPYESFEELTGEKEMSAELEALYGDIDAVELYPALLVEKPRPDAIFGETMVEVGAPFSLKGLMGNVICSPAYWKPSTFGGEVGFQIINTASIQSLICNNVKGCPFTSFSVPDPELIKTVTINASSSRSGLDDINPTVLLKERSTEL
Outline: as §1

[3] = biological target: T3, Human Whole Platelet Cyclooxygenase-1 (Homo sapiens, UniProt P23219); assay: Human Whole Platelet Cyclooxygenase-1 assay (HWPX); type: cell-based; settings: for pIC50: read-out: HWPX IC50 (parenthetical value)
T3 construct: from tissue; host or cells: human blood: isolated platelets (A4) or heparinised whole blood (A9)
T3 sequence (P23219 24-599): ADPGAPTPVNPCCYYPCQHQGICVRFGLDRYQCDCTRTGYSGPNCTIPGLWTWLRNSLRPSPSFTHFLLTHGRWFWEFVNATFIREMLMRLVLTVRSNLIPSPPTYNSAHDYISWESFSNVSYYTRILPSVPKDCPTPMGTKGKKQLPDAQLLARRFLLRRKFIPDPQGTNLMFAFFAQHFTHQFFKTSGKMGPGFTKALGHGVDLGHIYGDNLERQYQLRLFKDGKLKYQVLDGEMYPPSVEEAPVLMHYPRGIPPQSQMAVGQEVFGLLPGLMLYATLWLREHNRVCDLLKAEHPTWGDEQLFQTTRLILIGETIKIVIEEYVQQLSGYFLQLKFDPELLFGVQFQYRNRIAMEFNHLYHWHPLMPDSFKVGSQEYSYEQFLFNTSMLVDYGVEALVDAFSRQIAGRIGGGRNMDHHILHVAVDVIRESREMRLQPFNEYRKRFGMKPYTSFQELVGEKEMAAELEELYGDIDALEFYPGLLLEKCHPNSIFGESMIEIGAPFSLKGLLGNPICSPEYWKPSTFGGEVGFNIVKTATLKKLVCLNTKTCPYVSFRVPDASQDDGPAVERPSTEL
Procedure: Blood from normal healthy volunteers is collected into tubes containing ACD (acid citrate dextrose) as the anticoagulant. This blood is centrifuged at 175×g to prepare platelet rich plasma. The platelet rich plasma is then centrifuged at 100×g to pellet the white blood cells, leaving the platelets in the supernatant. The supernatant is layered on a cushion of 0.7 mL of 10% bovine serum albumin in Tyrodes solution (Gibco; Grand Island, N.Y.) and then centrifuged at 1000×g. The resulting supernatant from this centrifuigation is then removed and 11 mL of Tyrodes solution is added to the remaining pellet of platelets. The platelets are then aliquoted at 120 μl into a 96 well plate. Experimental compounds are added and allowed to pre-incubate for 10 minutes. At the end of this pre-incubation period, the calcium ionophore A23187 is added to a final concentration of 8.8 μM and the incubation is continued for ten minutes. The reaction is stopped by adding cold 6 mM EDTA, the incubation mixture is centrifuged at 220×g, and the supernatants are then analyzed for thromboxane using a commercial kit from Cayman Chemical (Ann Arbor, Mich.

[4] = biological target: T4, human amnionic whole cell cyclooxygenase-2 (WISH cells) (Homo sapiens, UniProt P35354); assay: IL-1β induced PGE2 production in WISH cells; type: cell-based; settings: for pIC50: read-out: Wish IC50 (parenthetical value)
T4 construct: endogenous in cells; host or cells: human amnionic WISH cells, induced with IL-1beta
T4 sequence (P35354 18-604): T2 sequence (P35354 18-604)
Outline: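 PGE2 was quantified by enzyme immunoassay (optical density read) against standards made up in the matching medium. WISH cells at 80% confluence, washed and placed in serum-free Neuman-Tytell medium, received 5 ng/ml IL-1β plus test compound or DMSO vehicle (0.01% v/v).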

[5] = read-out: RHUCX2 % Inh. at Dose
[6] = read-out: HWPX % Inhib. at Dose
[7] = read-out: Wish % Inhib. at Dose

T1 sequence (P23219 24-599): as above

SMILES	inhibition at 10 µM [1] [%]	inhibition at 0.1 µM [2, 5] [%]	pIC50 [3]	pIC50 [4]	melting point [°C]	inhibition at 100 µM [1] [%]	inhibition at 1 µM [2, 5] [%]	pIC50 [2]	further results
CS(=O)(=O)c1ccc(-c2cnn(-c3ccc(Cl)s3)c(=O)c2-c2ccc(Cl)cc2)cc1 [Example 100, 2-(5-Chloro-2-thienyl)-4-(4-chlorophenyl)-5-[4-(methylsulfonyl)phenyl]-3(2H)-pyridazinone]	62	61	6.89	7.70	249 to 251	–	–	–	inhibition at 1 µM [1]: 65%; inhibition at 10 µM [2, 5]: 100%
NS(=O)(=O)c1ccc(-c2cnn(CC(F)=C(F)F)c(=O)c2-c2ccc(F)cc2)cc1 [Example 141, 2-(2,3,3-Trifluoro-2-propen-1-yl)-4-(4-fluorophenyl)-5-[4-(aminosulfonyl)phenyl]-3(2H)-pyridazinone]	62	95	–	8.40	173 to 175	55	99	–	inhibition at 0.3 µM [3, 6]: 56%
C=C(F)C(F)(F)n1ncc(-c2ccc(S(N)(=O)=O)cc2)c(-c2ccc(F)cc2)c1=O [Example 142, 2-(1,1,2-Trifluoro-2-propenyl)-4-(4-fluorophenyl)-5-[4-(aminosulfonyl)phenyl]-3(2H)-pyridazinone]	80	45	5.12	7.06	230 to 232	–	96	–	inhibition at 1 µM [1]: 53%; inhibition at 0.01 µM [2, 5]: 32%
CC(c1ccc(F)c(F)c1F)n1ncc(-c2ccc(S(N)(=O)=O)cc2)c(-c2ccc(F)cc2)c1=O (stereo not drawn) [Example 146, 2-(α-Methyl-2,3,4-trifluorobenzyl)-4-(4-fluorophenyl)-5-[4-(aminosulfonyl)phenyl]-3(2H)-pyridazinone]	82	73	–	7.36	192 to 194	–	100	–	inhibition at 1 µM [1]: 53%; inhibition at 3 µM ([3]; 3 μM, read-out: HWPX % Inhib. at Dose): 46%; inhibition at 10 µM ([3]; 10 μM, read-out: HWPX % Inhib. at Dose): 84%
CC(c1cc(F)cc(F)c1)n1ncc(-c2ccc(S(N)(=O)=O)cc2)c(-c2ccc(F)cc2)c1=O (stereo not drawn) [Example 147, 2-(α-Methyl-3,5-difluorobenzyl)-4-(4-fluorophenyl)-5-[4-(aminosulfonyl)phenyl]-3(2H)-pyridazinone]	–	64	–	7.54	139 to 141	–	100	–	pIC50 [1]: 7.17; inhibition at 0.03 µM ([2]; 0.03 μM, read-out: RHUCX2 % Inh. at Dose): 0%; inhibition at 0.3 µM [3, 6]: 84%
C/C(=C\Cn1ncc(-c2ccc(S(N)(=O)=O)cc2)c(-c2ccc(F)cc2)c1=O)C(F)(F)F [Example 154]	–	–	–	–	155 to 157	–	–	7.74	pIC50 [1]: 6.90; inhibition at 0.1 µM ([3]; 0.1 μM, read-out: HWPX % Inhib. at Dose): 48%; inhibition at 0.3 µM [3, 6]: 81%; inhibition at 0.01 µM [4, 7]: 69%; inhibition at 0.1 µM [4, 7]: 100%
CS(=O)(=O)c1ccc(-c2cnn(-c3cccc(Cl)c3)c(=O)c2-c2ccc(F)cc2)cc1 [Example 165]	–	–	5.72	7.52	232 to 235	0	–	5.97	–
CS(=O)(=O)c1ccc(-c2cnn(-c3ccc(F)cc3)c(=O)c2C2CCCCC2)cc1 [Example 228, 2-(4-Fluorophenyl)-4-cyclohexyl-5-[4-(methylsulfonyl)phenyl]-3(2H)-pyridazinone]	–	–	4.71	7.07	231 to 233	7	–	6.68	–
Cc1cc(-c2c(-c3ccc(S(C)(=O)=O)cc3)cnn(-c3ccc(F)c(Cl)c3)c2=O)ccc1F [Example 247, 2-(3-Chloro-4-fluorophenyl)-4-(4-fluoro-3-mehylphenyl)-5-[4-(methylsulfonyl)phenyl]-3(2H)-pyridazinone]	72	51	5.11	7.70	207 to 208	–	71	–	inhibition at 1 µM [1]: 55%; inhibition at 10 µM [2, 5]: 99%
CC(C)(C)COc1c(-c2ccc(S(C)(=O)=O)cc2)cnn(-c2cccc(Cl)c2)c1=O [Example 338, 2-(3-Chlorophenyl)-4-(2,2-dimethylpropoxy)-5-[4-(methylsulfonyl)phenyl]-3(2H)-pyridazinone]	–	83	4.83	8.40	151 to 153	0	100	–	–
CS(=O)(=O)c1ccc(-c2cnn(-c3cccc(Cl)c3)c(=O)c2C2CCCCC2)cc1 [Example 368, 2-(3-Chlorophenyl)-4-cyclohexyl-5-[4-(methylsulfonyl)phenyl]-3(2H)-pyridazinone]	–	65	4.86	–	85 to 90	13	96	–	inhibition at 0.01 µM [4, 7]: 33%; inhibition at 0.03 µM ([4]; 0.03 μM, read-out: Wish % Inhib. at Dose): 64%
Cc1ccc(-c2c(-c3ccc(S(C)(=O)=O)cc3)cnn(-c3cccc(Cl)c3)c2=O)cc1 [Example 370, 2-(3-Chlorophenyl)-4-(4-methylphenyl)-5-[4-(methylsulfonyl)phenyl]-3(2H)-pyridazinone]	–	–	5.08	7.70	222 to 224	8	–	7.32	–
CC(C)(C)COc1c(-c2ccc(S(N)(=O)=O)c(F)c2)cnn(CC(F)(F)F)c1=O [Example 381, 2-(2,2,2-Trifluoroethyl)-4-(2,2-dimethylpropoxy)-5-[3-fluoro-4-(aminosulfonyl)phenyl]-3(2H)-pyridazinone]	–	–	–	7.12	144 to 145	0	–	6.73	inhibition at 30 µM ([3]; 30 μM, read-out: HWPX % Inhib. at Dose): 31%; inhibition at 100 µM ([3]; 100 μM, read-out: HWPX % Inhib. at Dose): 91%
NS(=O)(=O)c1ccc(-c2cnn(-c3ccc(F)c(Cl)c3)c(=O)c2-c2ccc(F)cc2)cc1 [Example 401, 2-(3-Chloro-4-fluorophenyl)-4-(4-fluorophenyl)-5-[4-(aminosulfonyl)phenyl]-3(2H)-pyridazinone]	–	62	6.49	7.77	208 to 210	–	96	–	pIC50 [1]: 6.12; inhibition at 0.01 µM [2, 5]: 48%
CC(C)CCc1c(-c2ccc(S(N)(=O)=O)cc2)cnn(-c2ccc(F)c(F)c2)c1=O [Example 404, 2-(3,4-Difluorophenyl)-4-(3-methylbutyl)-5-[4-(aminosulfonyl)phenyl]-3(2H)-pyridazinone]	47	92	6.47	–	171 to 173	77	–	–	inhibition at 0.01 µM [2, 5]: 57%; inhibition at 0.01 µM [4, 7]: 58%; inhibition at 0.1 µM [4, 7]: 96%

— patent US20020028938A1, “Prostaglandin endoperoxide H synthase biosynthesis inhibitors” (priority 1997, published 2002)
